Experimental data reported in patent publication US11760744B2, “Fused ring compounds” (Genentech, Inc., priority 2018, dated 2023).
pEC50, pIC50: −log10 of the molar value.

Legend:
[1] = biological target: T1, K-Ras G12C mutant protein (Homo sapiens, UniProt P01116, G12C); test: K-Ras G12C HTRF assay; assay type: biochemical; conditions: Table 1; unit or assay not given; several values in one cell
T1 construct: K-Ras G12C (residues 2-188) and SOS1 (residues 564-1049) had N-terminal 6-His; made in house; host or cells: E. coli
T1 sequence (P01116 2-188 isoform P01116-2 G12C): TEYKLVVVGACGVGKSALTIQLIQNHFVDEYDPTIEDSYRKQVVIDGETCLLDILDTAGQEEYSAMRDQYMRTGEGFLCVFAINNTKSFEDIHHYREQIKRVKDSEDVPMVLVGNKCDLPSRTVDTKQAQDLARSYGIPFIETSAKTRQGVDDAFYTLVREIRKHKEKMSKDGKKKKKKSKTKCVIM
Experimental: In the above definition of R^2, the electrophilic moiety that is capable of forming a covalent bond with a cysteine residue is determined via K-Ras G12C-alkylation studies and Homogeneous Time Resolved Fluorescence (HTRF) assays. The G12C mutation of the K-Ras gene is a change in amino acid from glycine to cysteine at the 12th amino acid. The compounds according to the present disclosure were discovered using the HTRF assay and the K-Ras G12C-alkylation assay, as further detailed elsewhere herein below, and then NMR spectroscopy was later used to validate the specificity with which the molecule was attaching to G12C.

[2] = biological target: T2, K-Ras G12C (Homo sapiens, UniProt P01116, G12C); test: K-Ras G12C, SOS1, Raf RBD HTRF assay for inhibition of GTP exchange; assay type: biochemical; set-up: K-Ras G12C (residues 2-188) and SOS1 (residues 564-1049) had N-terminal 6-His; made in house; host or cells: E. coli; conditions: 18 hours preincubation with K-Ras G12C at room temperature; SOS1-mediated GTP exchange
In short: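 After 18 h at room temperature with compound, SOS1 (1.25 nM final) started exchange to GTP (150 μM final). C-Raf RBD, Tb-anti-FLAG and D2-anti-his (50, 1 and 12.5 nM) were then added. The 665/615 nm HTRF ratio was read after 2 h; buffer was HEPES/NaCl, 1 mM MgCl2, BSA, Tween-20 and DTT.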
Target sequence in this assay (P01116 2-188 isoform P01116-2 G12C): as above

[3] = biological target: T2, K-Ras G12C; test: Western blot assay for in cell alkylation of K-Ras G12C (HCC1171 cells); assay type: cell-based; set-up: endogenous in cells; host or cells: HCC1171; conditions: 18 hours at 37° C., 7 point dose response
In short: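 HCC1171 cells exposed to compounds for 18 h at 37° C, lysed, and analysed by SDS-PAGE/western blot with anti-K-Ras antibody and fluorescent secondary. Alkylated K-Ras separated by band shift; % alkylation = FI(alkylated)/(FI(alkylated)+FI(unalkylated))×100, IC50 from 7-point dose response.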
Target sequence in this assay (P01116 1-188 isoform P01116-2 G12C): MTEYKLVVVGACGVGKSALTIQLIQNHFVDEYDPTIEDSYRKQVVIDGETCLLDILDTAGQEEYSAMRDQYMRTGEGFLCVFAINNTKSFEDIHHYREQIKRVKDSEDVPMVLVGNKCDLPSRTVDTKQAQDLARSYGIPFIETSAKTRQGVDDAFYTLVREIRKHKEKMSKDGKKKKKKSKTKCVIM

SMILES	pIC50 [1]	pIC50 [2]	pEC50 [3]
C=CC(=O)N1CCN(c2ncnc3c2CC(C)C(c2nc(N)cc(C)c2C(F)(F)F)C3)CC1 (single isomer, unassigned) [Example 1, 1-(4-(7-(6-amino-4-methyl-3-(trifluoromethyl)pyridin-2-yl)-6-methyl-5,6,7,8-tetrahydroquinazolin-4-yl)piperazin-1-yl)prop-2-en-1-one]	< 4.30	–	–
C=CC(=O)N1CCC(C#N)(c2nc(OCC3CCCN3C)nc3c2CCC(c2cc(O)cc4ccccc24)C3)CC1 (stereo not shown) [Example 7, 1-acryloyl-4-(7-(3-hydroxynaphthalen-1-yl)-2-((1-methylpyrrolidin-2-yl)methoxy)-5,6,7,8-tetrahydroquinazolin-4-yl)piperidine-4-carbonitrile]	7.06	–	–
COc1ccc(CN(Cc2ccc(OC)cc2)c2cc(C)c(I)c(C3Cc4nc(OCC5CCCN5C)nc(N5CCN(C(=O)OC(C)(C)C)CC5C)c4CC3C)c2F)cc1 (stereo not shown) [Example 14, tert-butyl 4-(7-(3-(bis(4-methoxybenzyl)amino)-2-fluoro-6-iodo-5-methylphenyl)-6-methyl-2-((1-methylpyrrolidin-2-yl)methoxy)-5,6,7,8-tetrahydroquinazolin-4-yl)-3-methylpiperazine-1-carboxylate]	< 4.30	–	–
C=CC(=O)N1CCN(c2nc(OCC3CCCN3C)nc3c2CC(C)C(c2c(C)ccc4[nH]ncc24)C3)CC1 (stereo not shown) [Example 18, 1-(4-(6-methyl-7-(5-methyl-1H-indazol-4-yl)-2-((1-methylpyrrolidin-2-yl)methoxy)-5,6,7,8-tetrahydroquinazolin-4-yl)piperazin-1-yl)prop-2-en-1-one]	7.62	–	–
C=CC(=O)N1CCN(c2nc(OCC3CCCN3C)nc3c2CCC2(CCCCC2)C3)CC1 (stereo not shown) [Example 25, 1-(4-(2′-((1-methylpyrrolidin-2-yl)methoxy)-5′,8′-dihydro-6′H-spiro[cyclohexane-1,7′-quinazolin]-4′-yl)piperazin-1-yl)prop-2-en-1-one]	5.27	–	–
C=CC(=O)N1CCN(c2nc(OCC3CCCN3C)nc3c2CCCC3)CC1 (stereo not shown) [Example 45, 1-(4-(2-((1-methylpyrrolidin-2-yl)methoxy)-5,6,7,8-tetrahydroquinazolin-4-yl)piperazin-1-yl)prop-2-en-1-one]	< 4.30	–	–
CN1CCCC1COc1nc2c(c(N3CCN(C(=O)/C=C/CNC45CC(C4)C5)C(CC#N)C3)n1)CCC(c1cccc3ccccc13)C2 (stereo not shown) [Example 48, (E)-2-(1-(4-(bicyclo[1.1.1]pentan-1-ylamino)but-2-enoyl)-4-(2-((1-methylpyrrolidin-2-yl)methoxy)-7-(naphthalen-1-yl)-5,6,7,8-tetrahydroquinazolin-4-yl)piperazin-2-yl)acetonitrile]	7.96	–	–
CN1CCC[C@H]1COc1nc2c(c(N3CCN(C(=O)/C=C/CNC45CC(C4)C5)[C@@H](CC#N)C3)n1)CCC(c1cccc3ccccc13)C2 (stereo partly drawn) [Example 48a, 2-((2S)-1-((E)-4-(bicyclo[1.1.1]pentan-1-ylamino)but-2-enoyl)-4-(2-(((S)-1-methylpyrrolidin-2-yl)methoxy)-7-(naphthalen-1-yl)-5,6,7,8-tetrahydroquinazolin-4-yl)piperazin-2-yl)acetonitrile]	–	7.96	6.82
C=CC(=O)N1CCN(c2nc(OCC3CCCN3C)nc3c2CCC(c2cc(O)cc4ccccc24)C3)CC1 (stereo not shown) [Example 49, 1-(4-(7-(3-hydroxynaphthalen-1-yl)-2-((1-methylpyrrolidin-2-yl)methoxy)-5,6,7,8-tetrahydroquinazolin-4-yl)piperazin-1-yl)prop-2-en-1-one]	7.64	–	–
C=CC(=O)N1CCN(c2nc(OC[C@@H]3CCCN3C)nc3c2CCC(c2cc(O)cc4ccccc24)C3)CC1 (stereo partly drawn) [Example 49a, 1-[4-[7-(3-hydroxy-1-naphthyl)-2-[[(2S)-1-methylpyrrolidin-2-yl]methoxy]-5,6,7,8-tetrahydroquinazolin-4-yl]piperazin-1-yl]prop-2-en-1-one]	–	7.64	6.77
C=CC(=O)Oc1cc(C2CCc3c(nc(OCC4CCCN4C)nc3N3CCN(C(=O)C=C)CC3)C2)c2ccccc2c1 (stereo not shown) [Example 50, 4-(4-(4-acryloylpiperazin-1-yl)-2-((1-methylpyrrolidin-2-yl)methoxy)-5,6,7,8-tetrahydroquinazolin-7-yl)naphthalen-2-yl acrylate]	6.80	–	–
C=CC(=O)Oc1cc(C2CCc3c(nc(OC[C@@H]4CCCN4C)nc3N3CCN(C(=O)C=C)CC3)C2)c2ccccc2c1 (stereo partly drawn) [Example 50a, 4-(4-(4-acryloylpiperazin-1-yl)-2-(((S)-1-methylpyrrolidin-2-yl)methoxy)-5,6,7,8-tetrahydroquinazolin-7-yl)naphthalen-2-yl acrylate]	–	6.80	6.77
C=CC(=O)N1CCN(c2nc(OCCC3CCCN3C)nc3c2CCC(c2cc(O)cc4ccccc24)C3)CC1 (stereo not shown) [Example 52, 1-(4-(7-(3-hydroxynaphthalen-1-yl)-2-(2-(1-methylpyrrolidin-2-yl)ethoxy)-5,6,7,8-tetrahydroquinazolin-4-yl)piperazin-1-yl)prop-2-en-1-one]	7.29	–	–
C=CC(=O)N1CCN(c2nc(OCC[C@@H]3CCCN3C)nc3c2CCC(c2cc(O)cc4ccccc24)C3)CC1 (stereo partly drawn) [Example 52a, 1-(4-(7-(3-hydroxynaphthalen-1-yl)-2-(2-((S)-1-methylpyrrolidin-2-yl)ethoxy)-5,6,7,8-tetrahydroquinazolin-4-yl)piperazin-1-yl)prop-2-en-1-one]	–	7.29	6.00
C=CC(=O)N1CCN(c2nc(OCCCN3CCOCC3)nc3c2CCC(c2cc(O)cc4ccccc24)C3)[C@@H](C)C1 (stereo partly drawn) [Example 53a, 1-((3S)-4-(7-(3-hydroxynaphthalen-1-yl)-2-(3-morpholinopropoxy)-5,6,7,8-tetrahydroquinazolin-4-yl)-3-methylpiperazin-1-yl)prop-2-en-1-one]	–	7.66	6.64
C=CC(=O)N1CCN(c2nc(OCC3CCC(=O)N3)nc3c2CCC(c2cc(O)cc4ccccc24)C3)[C@@H](C)C1 (stereo partly drawn) [Example 55a, 5-(((4-((S)-4-acryloyl-2-methylpiperazin-1-yl)-7-(3-hydroxynaphthalen-1-yl)-5,6,7,8-tetrahydroquinazolin-2-yl)oxy)methyl)pyrrolidin-2-one]	–	5.85	5.17
C=CC(=O)N1C[C@H](C)N(c2nc(OC[C@@H]3CCCN3C)nc3c2CCC(c2cc(O)cc4ccccc24)C3)[C@@H](C)C1 (stereo partly drawn) [Example 56a, 1-((3S,5S)-4-(7-(3-hydroxynaphthalen-1-yl)-2-(((S)-1-methylpyrrolidin-2-yl)methoxy)-5,6,7,8-tetrahydroquinazolin-4-yl)-3,5-dimethylpiperazin-1-yl)prop-2-en-1-one]	–	7.14	6.21
C=CC(=O)N1CCN(c2nc(OC[C@@H]3CCCN3C)nc3c2CCC(c2cc(O)cc4ccccc24)C3)CC1CC#N (stereo partly drawn) [Example 58a, 2-(1-acryloyl-4-(7-(3-hydroxynaphthalen-1-yl)-2-(((S)-1-methylpyrrolidin-2-yl)methoxy)-5,6,7,8-tetrahydroquinazolin-4-yl)piperazin-2-yl)acetonitrile]	–	7.55	8.00
C=CC(=O)Oc1cc(C2CCc3c(nc(OC[C@@H]4CCCN4C)nc3N3CCN(C(=O)C=C)C(CC#N)C3)C2)c2ccccc2c1 (stereo partly drawn) [Example 59a, 4-(4-(4-acryloyl-3-(cyanomethyl)piperazin-1-yl)-2-(((S)-1-methylpyrrolidin-2-yl)methoxy)-5,6,7,8-tetrahydroquinazolin-7-yl)naphthalen-2-yl acrylate]	–	6.60	7.54
